{"source": "patent EP2951180B1", "about": "“2,6,7,8 SUBSTITUTED PURINES AS HDM2 INHIBITORS” (Merck Sharp & Dohme Corp., priority 2013, dated 2014)", "data": [{"molecular_target": "T1, HDM2 (Homo sapiens, UniProt Q00987)", "T1 construct": "Thioredoxin (N); made in house; host or cells: E. coli strain BL21(DE3)Rosetta", "T1 sequence (Q00987 17-125)": "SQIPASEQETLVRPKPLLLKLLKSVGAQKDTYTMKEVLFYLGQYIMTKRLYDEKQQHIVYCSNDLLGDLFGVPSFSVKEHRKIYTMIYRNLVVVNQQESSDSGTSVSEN", "test": "FRET assay (HDM2 inhibition; method not described in this part)", "type": "binding", "conditions": "Table 1", "units": {"IC50": "nM"}, "values": [{"molecule": "CCc1ccnc(-c2nc3nc(C(=O)O)nc(N[C@H](C)C4CCC4)c3n2Cc2ccc(C(F)(F)F)c(F)c2)c1", "note": "[Example 1.79, 6-{[(1R)-1-cyclobutylethyl]amino}-8-(4-ethylpyridin-2-yl)-7-[3-fluoro-4-(trifluoromethyl)benzyl]-7H-purine-2-carboxylic acid]", "IC50": 10.2}, {"molecule": "CCCc1ccnc(-c2nc3nc(C(=O)O)nc(N[C@H](C)C4CCC4)c3n2Cc2ccc(C(F)(F)F)c(F)c2)c1", "note": "[Example 1.80, 6-{[(1R)-1-cyclobutylethyl]amino}-7-[3-fluoro-4-(trifluoromethyl)benzyl]-8-(4-propylpyridin-2-yl)-7H-purine-2-carboxylic acid]", "IC50": 7.45}, {"molecule": "CC(C)c1cncc(-c2nc3nc(C(=O)O)nc(N[C@H](C)C4CCC4)c3n2Cc2ccc(C(F)(F)F)cc2)c1", "note": "[Example 1.81, 6-{[(1R)-1-cyclobutylethyl]amino}-8-[5-(1-methylethyl)pyridin-3-yl]-7-[4-(trifluoromethyl)benzyl]-7H-purine-2-carboxylic acid]", "IC50": 74.4}, {"molecule": "Cc1ccnc(-c2nc3nc(C(=O)O)nc(N[C@H](C)C4CCC4)c3n2Cc2ccc(C(F)(F)F)cc2)c1F", "note": "[Example 1.82, 6-{[(1R)-1-cyclobutylethyl]amino}-8-(3-fluoro-4-methylpyridin-2-yl)-7-[4-(trifluoromethyl)benzyl]-7H-purine-2-carboxylic acid]", "IC50": 49}, {"molecule": "CC(C)c1ccc(OC(F)(F)F)c(-c2nc3nc(C(=O)O)nc(N[C@H](C)C4CCC4)c3n2Cc2ccc(OC(F)(F)F)c(F)c2)c1", "note": "[Example 1.83, 6-{[(1R)-1-cyclobutylethyl]amino}-7-[3-fluoro-4-(trifluoromethoxy)benzyl]-8-[5-(1-methylethyl)-2-(trifluoromethoxy)phenyl]-7H-purine-2-carboxylic acid]", "IC50": 23.2}, {"molecule": "Cc1ccc(OC(F)(F)F)c(-c2nc3nc(C(=O)O)nc(N[C@H](C)C4CCC4)c3n2Cc2ccc(C(F)(F)F)cc2)c1", "note": "[Example 1.84, 6-{[(1R)-1-cyclobutylethyl]amino}-8-[5-methyl-2-(trifluoromethoxy)phenyl]-7-[4-(trifluoromethyl)benzyl]-7H-purine-2-carboxylic acid]", "IC50": 9.68}, {"molecule": "CC(C)Cc1ccnc(-c2nc3nc(C(=O)O)nc(N[C@H](C)C4CCC4)c3n2Cc2ccc(C(F)(F)F)cc2)c1", "note": "[Example 1.85, 6-{[(1R)-1-cyclobutylethyl]amino}-8-[4-(2-methylpropyl)pyridin-2-yl]-7-[4-(trifluoromethyl)benzyl]-7H-purine-2-carboxylic acid]", "IC50": 9.69}, {"molecule": "Cc1cnc(-c2nc3nc(C(=O)O)nc(N[C@H](C)C4CCC4)c3n2Cc2ccc(C(F)(F)F)cc2)cc1C(C)C", "note": "[Example 1.86, 6-{[(1R)-1-cyclobutylethyl]amino}-8-[5-methyl-4-(1-methylethyl)pyridin-2-yl]-7-[4-(trifluoromethyl)benzyl]-7H-purine-2-carboxylic acid]", "IC50": 24.8}, {"molecule": "Cc1c(C(C)C)ccnc1-c1nc2nc(C(=O)O)nc(N[C@H](C)C3CCC3)c2n1Cc1ccc(C(F)(F)F)cc1", "note": "[Example 1.87, 6-{[(1R)-1-cyclobutylethyl]amino}-8-[3-methyl-4-(1-methylethyl)pyridin-2-yl]-7-[4-(trifluoromethyl)benzyl]-7H-purine-2-carboxylic acid]", "IC50": 59}, {"molecule": "C[C@@H](Nc1nc(C(=O)O)nc2nc(-c3cc(CCC(C)(C)C)ccn3)n(Cc3ccc(C(F)(F)F)cc3)c12)C1CCC1", "note": "[Example 1.88, 6-{[(1R)-1-cyclobutylethyl]amino}-8-[4-(3,3-dimethylbutyl)pyridin-2-yl]-7-[4-(trifluoromethyl)benzyl]-7H-purine-2-carboxylic acid]", "IC50": 19.6}, {"molecule": "C[C@@H](Nc1nc(C(=O)O)nc2nc(-c3cc(CCC4CC4)ccn3)n(Cc3ccc(C(F)(F)F)cc3)c12)C1CCC1", "note": "[Example 1.89, 6-{[(1R)-1-cyclobutylethyl]amino}-8-[4-(2-cyclopropylethyl)pyridin-2-yl]-7-[4-(trifluoromethyl)benzyl]-7H-purine-2-carboxylic acid]", "IC50": 8.67}, {"molecule": "Cc1cnc(-c2nc3nc(C(=O)O)nc(N[C@H](C)C4CCC4)c3n2Cc2ccc(OC(F)(F)F)c(F)c2)cc1C(C)C", "note": "[Example 1.90, 6-{[(1R)-1-cyclobutylethyl]amino}-7-[3-fluoro-4-(trifluoromethoxy)benzyl]-8-[5-methyl-4-(1-methylethyl)pyridin-2-yl]-7H-purine-2-carboxylic acid]", "IC50": 24.7}, {"molecule": "Cc1c(C(C)C)ccnc1-c1nc2nc(C(=O)O)nc(N[C@H](C)C3CCC3)c2n1Cc1ccc(OC(F)(F)F)c(F)c1", "note": "[Example 1.91, 6-{[(1R)-1-cyclobutylethyl]amino}-7-[3-fluoro-4-(trifluoromethoxy)benzyl]-8-[3-methyl-4-(1-methylethyl)pyridin-2-yl]-7H-purine-2-carboxylic acid]", "IC50": 22.3}, {"molecule": "Cc1cnc(-c2nc3nc(C(=O)O)nc(N[C@H](C)C4CCC4)c3n2Cc2ccc(C(F)(F)F)c(F)c2)cc1C(C)C", "note": "[Example 1.92, 6-{[(1R)-1-cyclobutylethyl]amino}-7-[3-fluoro-4-(trifluoromethyl)benzyl]-8-[5-methyl-4-(1-methylethyl)pyridin-2-yl]-7H-purine-2-carboxylic acid]", "IC50": 15.9}, {"molecule": "Cc1cc(C(C)C)cc(-c2nc3nc(C(=O)O)nc(N[C@H](C)C4CCC4)c3n2Cc2ccc(C(F)(F)F)cc2)n1", "note": "[Example 1.93, 6-{[(1R)-1-cyclobutylethyl]amino}-8-[6-methyl-4-(1-methylethyl)pyridin-2-yl]-7-[4-(trifluoromethyl)benzyl]-7H-purine-2-carboxylic acid]", "IC50": 19.1}, {"molecule": "Cc1cc(-c2nc3nc(C(=O)O)nc(N[C@H](C)C4CCC4)c3n2Cc2ccc(C(F)(F)F)cc2)n(C)n1", "note": "[Example 1.94, 6-{[(1R)-1-cyclobutylethyl]amino}-8-(1,3-dimethyl-1H-pyrazol-5-yl)-7-[4-(trifluoromethyl)benzyl]-7H-purine-2-carboxylic acid]", "IC50": 173}, {"molecule": "Cc1c(-c2nc3nc(C(=O)O)nc(N[C@H](C)C4CCC4)c3n2Cc2ccc(C(F)(F)F)cc2)cnn1C", "note": "[Example 1.95, 6-{[(1R)-1-cyclobutylethyl]amino}-8-(1,5-dimethyl-1H-pyrazol-4-yl)-7-[4-(trifluoromethyl)benzyl]-7H-purine-2-carboxylic acid]", "IC50": 138}, {"molecule": "C[C@@H](Nc1nc(C(=O)O)nc2nc(-c3ccccc3)n(Cc3ccc(C(F)(F)F)cc3)c12)C1CC1", "note": "[Example 1.96, 6-{[(1R)-1-cyclopropylethyl]amino} -8-phenyl-7-[4-(trifluoromethyl)benzyl]-7H-purine-2-carboxylic acid]", "IC50": 371}, {"molecule": "C[C@@H](Nc1nc(C(=O)O)nc2nc(-c3ccc(N4CCOCC4)cc3)n(Cc3ccc(C(F)(F)F)cc3)c12)C1CC1", "note": "[Example 1.97, 6-{[(1R)-1-cyclopropylethyl]amino} -8-(4-morpholin-4-ylphenyl)-7-[4-(trifluoromethyl)benzyl]-7H-purine-2-carboxylic acid]", "IC50": 1540}, {"molecule": "CC(C)Oc1cccc(-c2nc3nc(C(=O)O)nc(N[C@H](C)C4CC4)c3n2Cc2ccc(C(F)(F)F)cc2)c1", "note": "[Example 1.98, 6-{[(1R)-1-cyclopropylethyl]amino} -8-[3-(1-methylethoxy)phenyl]-7-[4-(trifluoromethyl)benzyl]-7H-purine-2-carboxylic acid]", "IC50": 316}]}]}
